Laboratory results published in ChEMBL document CHEMBL3638507, “Heteroaromatic compounds as BTK inhibitors” (2015).

What follows are compounds tested against Tyrosine-protein kinase BTK (Homo sapiens, UniProt Q06187) (assay: HTRF Assay: An HTRF assay (Cisbio KinEASE-TK cat #62TKOPEC) was performed to quantitate the ability of test compounds to inhibit BTK mediated phosphorylation of substrate. Assays were assembled in 384 well plates where 6 nM of full-length human His-tagged BTK (Life Technologies cat #PV3587) and test compound at varying concentrations were preincubated for 15 minutes at 28° C. Then, 1 uM of TK substrate-biotin and 30 uM ATP were added and incubated for an additional 30 minutes at 28° C. Phospohrylation was detected by adding 62.5 nM Streptavidin-XL665 and TK-Antibody Cryptate diluted 1:100 in HTRF detection buffer (Cisbio cat #62SDBRDF) and incubated for 60 minutes at RT. The plate was read on an Envision plate reader and the fluoresence is measured at 620 nm (cryptate) and 665 nm (XL665). A ratio is calculated (665/620) and converted to POC relative to control and blank wells.Assay Buffer:50 mM HEPES (Invitrogen #15630), 0.01% Brij-35 (sigma #B4184), 10 mM MgC12 (Sigma M1028), 1 mM EGTA.).
Sequence of Tyrosine-protein kinase BTK (Q06187 whole entry): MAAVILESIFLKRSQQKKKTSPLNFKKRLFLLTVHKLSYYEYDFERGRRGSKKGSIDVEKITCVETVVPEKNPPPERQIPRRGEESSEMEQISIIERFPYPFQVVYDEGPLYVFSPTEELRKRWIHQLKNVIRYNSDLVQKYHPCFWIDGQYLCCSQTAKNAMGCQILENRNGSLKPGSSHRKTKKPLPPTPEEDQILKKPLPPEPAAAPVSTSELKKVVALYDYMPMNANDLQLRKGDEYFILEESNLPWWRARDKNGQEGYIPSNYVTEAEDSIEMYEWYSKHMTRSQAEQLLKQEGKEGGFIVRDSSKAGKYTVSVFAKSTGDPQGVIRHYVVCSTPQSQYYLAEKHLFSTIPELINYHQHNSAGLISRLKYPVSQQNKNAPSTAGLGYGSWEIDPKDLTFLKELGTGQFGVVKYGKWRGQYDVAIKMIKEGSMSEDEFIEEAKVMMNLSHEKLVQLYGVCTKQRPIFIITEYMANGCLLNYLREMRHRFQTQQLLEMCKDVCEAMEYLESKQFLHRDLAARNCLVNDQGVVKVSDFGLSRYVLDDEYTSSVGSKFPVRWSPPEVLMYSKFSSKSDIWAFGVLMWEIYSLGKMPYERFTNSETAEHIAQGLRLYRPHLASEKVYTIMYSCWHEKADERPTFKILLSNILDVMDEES

SMILES	IC50 [nM]
C/C=C/C(=O)N1CC2(CC(n3nc(-c4ccc(Oc5ccccc5)cn4)c4c(N)ncnc43)C2)C1	65
C=CC(=O)N1CC2(CC(n3nc(-c4ccc(Oc5ccccc5)cn4)c4c(N)ncnc43)C2)C1	1.6
CC#CC(=O)N1CC2(CC(n3nc(-c4ccc(Oc5ccccc5)cn4)c4c(N)ncnc43)C2)C1	1
CC#CC(=O)N1CC[C@]2(C1)C[C@H](n1nc(-c3ccc(Oc4ccccc4)cn3)c3c(N)ncnc31)C2	4
